Laboratory results from US20240076347A1, “METHODS FOR PREVENTING FUNGAL INFECTIONS” (Cidara Therapeutics, Inc., priority 2016, published 2024).

Experiments:
Candida auris = experiment: Murine model of disseminated candidiasis (immunosuppressed CD-1 mice), treatment; assay type: in vivo; conditions: 20 mg/kg PO, 2 doses; Day 14
Description: Female 6-8 week old CD-1 mice were immunosuppressed with cyclophosphamide (200 mg/kg) 3 days prior to infection and 150 mg/kg 1 day post-infection. On the day of infection, mice were inoculated with 3×10^7 C. auris blastospores via the lateral tail vein. Mice were randomized into 5 groups (n=5 for colony forming units (CFU) and n=10 for survival): CD101 20 mg/kg administered by intraperitoneal (IP) injection, fluconazole 20 mg/kg administered per os (PO), amphotericin B 0.3 mg/kg IP, and a vehicle control. Treatments were administered 2 hours post-infection (Day 1) and again on Day 4 of the study for a total of 2 doses. Mice were monitored daily and a survival curve was generated. CFU groups were sacrificed on Day 8 of the study. One kidney was removed from each mouse, homogenized, plated on potato dextrose agar (PDA), and incubated at 35° C. for 2 days to determine CFU. The remaining survival mice were monitored until the end of the study (Day 14).

[1] = system: C. albicans SC-5314 biofilms; experiment: Mature phase biofilms (treatment) on silicone elastomer discs; assay type: cell-based, Candida albicans; conditions: 1 and 4 μg/ml
Description: (§1) Biofilms were formed on silicone elastomer (SE) discs using a catheter-associated-biofilm model (Chandra et al., Nature Protocols 3:1909, 2008; Chandra et al., J. […] Chandra et al., J. Dental Research 80: 903, 2001). For evaluation of activity against adhesion phase biofilms (prevention), Candida cells were adhered to catheter discs for 90 min. […] Discs incubated with fluconazole or media alone were used as controls in all experiments. […] Chandra et al., J. […] Chandra et al., J. Dental Research 80: 903, 2001). Following incubation with drugs, discs were transferred to fresh plates containing phosphate buffered saline with XTT and menadione, incubated for 3 h at 37° C. and optical density was read at 492 nm. Separate batches of biofilms were stained with fluorescent dyes (FUN1™, CONA) and observed under Confocal Scanning Laser Microscope (CSLM) to evaluate biofilm architecture and thickness (Chandra et al., Nature Protocols 3:1909, 2008; Chandra et al., J. […] Statistical analyses for all data were performed using GraphPad Prism 6 software. Drug treated groups were compared to control untreated groups using unpaired t-tests.

[2] = assay type: in vivo, Wistar rats; conditions: rat, in vivo
Description: Endpoints. The rats were monitored at a frequency appropriate for their clinical condition. Rat weights were recorded at least once daily to ensure animals remained within ethical limits.
(§2) Reduction in weight and general loss of condition due to estradiol treatment are also typical in this rat model. Colonization with C. albicans was determined by quantitative culture of daily vaginal lavage samples. Rats were euthanized 9 days post infection and C. albicans determined by quantitative culture of vaginal tissue (including uterine horns).

C. albicans strain 529L = experiment: Rat model of vulvovaginal candidiasis, vaginal lavage and tissue burden; assay type: in vivo, Candida albicans
Description: Animal Strain. Wistar rats were supplied by Harlan Laboratories UK and were specific pathogen free. Rats weighed […] at the time of surgery. Ovariectomies were performed. Rats were allowed 4-7 days recovery before transportation to the facility where the experiment was to be performed. Following arrival, rats were allowed at least 4 days acclimatization before start of the experiment. Rats weighed 100-120 g at the time of ovariectomy and were about 300 g at start of the experiment.
Pre-conditioning. Female Wistar rats underwent ovariectomy at least 10 days prior to the study commencing. They were further pre-conditioned by treatment with 5 mg/kg 17-β-estradiol administered subcutaneously (SC) every other day on Days −7, −5, −3 and −1 prior to infection with C. albicans strain 529. Estradiol treatment continued every other day throughout the study to 7 days post-infection.
Yeast Isolate. Candida albicans strain 529L was used in this chronic rat vaginal infection model.
Infection. Yeast strains were inoculated aerobically onto Sabouraud dextrose agar media (SAB) containing 0.05 mg/mL chloramphenicol and incubated at 30° C. for 48-72 h. 18-24 h prior to infection, Yeast Peptone Dextrose (YPD) broths were inoculated with 2-3 isolated colonies from agar plates and incubated overnight (37° C. on an orbital shaker). Broths containing C. albicans strain 529L were washed 3 times with sterile phosphate buffered saline (PBS) before dilution to the correct inoculum for infection. Cell counts were determined using a haemocytometer and confirmed by quantitative culture on Sabouraud dextrose agar.
Rats were infected with 0.1 mL by intravaginal administration under inhaled isoflurane anaesthesia using about 9.8×10^5 CFU/mL (9.8×10^4 CFU/Rat) C. albicans strain 529L
Treatment. […] The fluconazole treatment also started at 24 h post infection but was administered by the PO route at the dose volume and frequency shown in Table 7. The study design is further outlined in FIG. 19.
as §2
Lavage samples were obtained on Days 1 (pre-treatment), 2, 3, 5, 7, and 9 days post infection by flushing rat vaginas 4 times with 0.1 mL pre-warmed sterile PBS. Following euthanasia, vaginal tissue including uterine horns was removed prior to weighing. Tissues were homogenized in 2 mL sterile PBS using a bead-beater. Vaginal wash and tissue homogenates were diluted appropriately then quantitatively cultured on to Sabouraud dextrose agar containing 0.05 mg/mL chloramphenicol and incubated at 37° C. for up to 72 h before being counted.
Statistical analysis. Data were analyzed using StatsDirect software (version 2.7.8) using the non-parametric Kruskal-Wallis test and if this was statistically significant all pairwise comparisons were analyzed (Conover-Inman).

[3] = system: C. albicans SC-5314 biofilms; experiment: Adhesion phase biofilms (prevention) on silicone elastomer discs; assay type: cell-based, Candida albicans; conditions: 1 and 4 μg/ml
Description: as §1

[4] = lavage Day 1 post treatment (Day 2 post infection), 20 mg/kg PO dosed once
[5] = lavage Day 1 post treatment (Day 2 post infection), 20 mg/kg PO dosed twice
[6] = lavage Day 2 post treatment (Day 3 post infection), 20 mg/kg PO dosed once
[7] = lavage Day 2 post treatment (Day 3 post infection), 20 mg/kg PO dosed twice
[8] = lavage Day 4 post treatment (Day 5 post infection), 20 mg/kg PO dosed once
[9] = lavage Day 4 post treatment (Day 5 post infection), 20 mg/kg PO dosed twice
[10] = lavage Day 6 post treatment (Day 7 post infection), 20 mg/kg PO dosed once
[11] = lavage Day 6 post treatment (Day 7 post infection), 20 mg/kg PO dosed twice
[12] = lavage Day 8 post treatment (Day 9 post infection), 20 mg/kg PO dosed once
[13] = lavage Day 8 post treatment (Day 9 post infection), 20 mg/kg PO dosed twice
[14] = terminal vaginal tissue Day +9 post infection, 20 mg/kg PO dosed once
[15] = terminal vaginal tissue Day +9 post infection, 20 mg/kg PO dosed twice
[16] = vaginal lavage Day 1 post infection, pre-treatment, 20 mg/kg PO dosed once group
[17] = vaginal lavage Day 1 post infection, pre-treatment, 20 mg/kg PO dosed twice group

Compound: OC(Cn1cncn1)(Cn1cncn1)c1ccc(F)cc1F [Fluconazole, fluconazole, reference compound]
- percent survival at the end of the study (Candida auris): 0%
- biofilm architecture (CSLM) [1]: did not affect Candida biofilms
- thickness of biofilms [1]: had no effect
- biofilm metabolic activity (XTT) ([1]; 24 h, P>0.05): neither concentrations of fluconazole (1 and 4 μg/ml) affected these biofilms
- tolerability [2]: well tolerated with no adverse events observed
- terminal vaginal tissue burden (C. albicans strain 529L; 20 mg/kg PO once or twice, all rats, Day 9): below the limit of detection
- lavage burden (C. albicans strain 529L; Day 5 post infection, 20 mg/kg PO once or twice, all rats): below the limit of detection
- Group Geometric mean (C. albicans strain 529L; [4]): 1.50 × 10^2 CFU/mL
- Log Group Geometric mean (C. albicans strain 529L; [4]): 2.18 CFU/mL
- Log reduction from vehicle control (C. albicans strain 529L; [4]): 1.52 CFU/mL
- Group Geometric mean (C. albicans strain 529L; [5]): 1.27 × 10^2 CFU/mL
- Log Group Geometric mean (C. albicans strain 529L; [5]): 2.10 CFU/mL
- Log reduction from vehicle control (C. albicans strain 529L; [5]): 1.59 CFU/mL
- burden vs vehicle, statistics (C. albicans strain 529L; lavage Day 2 post infection): neither the CD101 nor fluconazole burden was statistically different from the vehicle burden
- reduction in burden (C. albicans strain 529L; lavage Day 2 post infection, fluconazole 20 mg/kg PO): about 1.6 Log10 CFU/mL
- Group Geometric mean (C. albicans strain 529L; [6]): 1.00 CFU/mL
- Log Group Geometric mean (C. albicans strain 529L; [6]): 0.00 CFU/mL
- Log reduction from vehicle control (C. albicans strain 529L; [6]): 3.57 CFU/mL
- Group Geometric mean (C. albicans strain 529L; [7]): 1.49 CFU/mL
- Log Group Geometric mean (C. albicans strain 529L; [7]): 0.17 CFU/mL
- Log reduction from vehicle control (C. albicans strain 529L; [7]): 3.40 CFU/mL
- rats having burden below the limit of detection (C. albicans strain 529L; lavage Day 3 post infection, 20 mg/kg PO once or twice): 11/12
- burden vs vehicle, statistics (C. albicans strain 529L; lavage Day 3 post infection, all treatments): statistically different from the vehicle treatments
- Group Geometric mean (C. albicans strain 529L; [8]): 1.00 CFU/mL
- Log Group Geometric mean (C. albicans strain 529L; [8]): 0.00 CFU/mL
- Log reduction from vehicle control (C. albicans strain 529L; [8]): 4.22 CFU/mL
- Group Geometric mean (C. albicans strain 529L; [9]): 1.00 CFU/mL
- Log Group Geometric mean (C. albicans strain 529L; [9]): 0.00 CFU/mL
- Log reduction from vehicle control (C. albicans strain 529L; [9]): 4.22 CFU/mL
- Group Geometric mean (C. albicans strain 529L; [10]): 1.00 CFU/mL
- Log Group Geometric mean (C. albicans strain 529L; [10]): 0.00 CFU/mL
- Log reduction from vehicle control (C. albicans strain 529L; [10]): 4.18 CFU/mL
- Group Geometric mean (C. albicans strain 529L; [11]): 1.00 CFU/mL
- Log Group Geometric mean (C. albicans strain 529L; [11]): 0.00 CFU/mL
- Log reduction from vehicle control (C. albicans strain 529L; [11]): 4.18 CFU/mL
- Group Geometric mean (C. albicans strain 529L; [12]): 1.00 CFU/mL
- Log Group Geometric mean (C. albicans strain 529L; [12]): 0.00 CFU/mL
- Log reduction from vehicle control (C. albicans strain 529L; [12]): 4.30 CFU/mL
- Group Geometric mean (C. albicans strain 529L; [13]): 1.00 CFU/mL
- Log Group Geometric mean (C. albicans strain 529L; [13]): 0.00 CFU/mL
- Log reduction from vehicle control (C. albicans strain 529L; [13]): 4.30 CFU/mL
- Group Geometric mean (C. albicans strain 529L; [14]): 1.00 CFU/g
- Log Group Geometric mean (C. albicans strain 529L; [14]): 0.00 CFU/g
- Log reduction from vehicle control (C. albicans strain 529L; [14]): 5.49 CFU/g
- Group Geometric mean (C. albicans strain 529L; [15]): 1.00 CFU/g
- Log Group Geometric mean (C. albicans strain 529L; [15]): 0.00 CFU/g
- Log reduction from vehicle control (C. albicans strain 529L; [15]): 5.49 CFU/g
- Group Geometric mean (C. albicans strain 529L; [16]): 3.16 × 10^3 CFU/mL
- Log Group Geometric mean (C. albicans strain 529L; [16]): 3.50 CFU/mL
- Log reduction from vehicle control (C. albicans strain 529L; [16]): −1.06 CFU/mL
- Group Geometric mean (C. albicans strain 529L; [17]): 1.04 × 10^3 CFU/mL
- Log Group Geometric mean (C. albicans strain 529L; [17]): 3.02 CFU/mL
- Log reduction from vehicle control (C. albicans strain 529L; [17]): −0.58 CFU/mL
- thickness of biofilms [3]: no effect on biofilm thickness
- biofilm metabolic activity (XTT) ([3]; 24 h, P>0.05): did not inhibit biofilm formation
